Assay results published in patent US20120053148A1, “INHIBITORS OF HEPATITIS C VIRUS” (GILEAD SCIENCES, INC., priority 2010, published 2012).

Experiments:
[1] = system: HCV Replicon IB; assay: HCV replicon assay in Huh-7 cells, genotype 1b (Rluc luciferase readout); type: cell-based, hepatitis C virus; conditions: Hepatitis C virus, 72 h; 10 μM; Huh-7 HCV replicon cells, 3 days; read-out: % inhibition @ 10 μM HCV Replicon IB
[2] = system: HCV Replicon IA; assay: HCV replicon assay in Huh-7 cells, genotype 1a; type: cell-based; conditions: Hepatitis C virus, 72 h, Huh-7 HCV replicon cells, 3 days

| Compound | inhibition at 10 µM [1] | inhibition at 10 µM [2] |
| --- | --- | --- |
| O=C(NCc1cccs1)c1cc(Cl)c2cc(-c3ccoc3)cc(C(F)(F)F)c2n1 [Compound 25] | 99.7% | 98.7% |
| COc1cc(C(=O)NCc2cccs2)nc2c(C(F)(F)F)cc(-c3ccoc3)cc12 [Compound 27] | 80.3% | 65.5% |
| Cc1cc(C(=O)NCc2cccs2)nc2c(C(F)(F)F)cc(-c3ccoc3)cc12 [Compound 28] | 100% | 99.8% |
| O=C(c1cc(O)c2cc(-c3ccoc3)cc(C(F)(F)F)c2n1)N1CC=C(c2ccccc2)CC1 [Compound 29] | 37.7% | 87.4% |
| O=C(c1cc(O)c2cc(-c3ccoc3)cc(C(F)(F)F)c2n1)N1CCC(c2ccc(F)cc2)CC1 [Compound 30] | 74.9% | 95.3% |
| O=C(c1cc(O)c2cc(-c3ccoc3)cc(C(F)(F)F)c2n1)N1CCC(c2cccc(F)c2)CC1 [Compound 31] | 58.1% | 98.1% |
| O=C(NCc1cccs1)c1cc(O)c2cc(-c3ccccc3)cc(C(F)(F)F)c2n1 [Compound 34] | 98.3% | 97.8% |
| O=C(NCc1cccs1)c1cc(O)c2cc(-c3cc[nH]n3)cc(C(F)(F)F)c2n1 [Compound 35] | 94.5% | 94.2% |
| O=C(NCc1cccs1)c1cc(O)c2cc(-c3cn[nH]c3)cc(C(F)(F)F)c2n1 [Compound 36] | 99.4% | 99.3% |
| Nc1cc(O)c2cc(-c3ccccc3)cc(C(F)(F)F)c2n1 [Compound 39] | 65% | 92.5% |
| O=C(Cc1cccs1)Nc1cc(O)c2cc(-c3ccccc3)cc(C(F)(F)F)c2n1 [Compound 40] | 97.6% | 99.7% |
| O=C(NCc1cccs1)c1nc(O)c2cc(-c3ccccc3)cc(C(F)(F)F)c2n1 [Compound 47, 4-oxo-6-phenyl-8-trifluoromethyl-3,4-dihydro-quinazoline-2-carboxylic acid (thiophen-2-ylmethyl)-amide] | 99.8% | 99.7% |
| O=C(NCc1cccs1)c1nc(O)c2cc(-c3ccoc3)cc(C(F)(F)F)c2n1 [Compound 48] | 99.9% | 99.4% |
| O=C(NCc1cccs1)c1nc(O)c2cc(-c3cn[nH]c3)cc(C(F)(F)F)c2n1 [Compound 49] | 99% | 99.7% |
| Nc1nc(C(=O)NCc2cccs2)nc2c(C(F)(F)F)cc(-c3ccccc3)cc12 [Compound 51] | 100% | 100% |
| CNc1nc(C(=O)NCc2cccs2)nc2c(C(F)(F)F)cc(-c3ccccc3)cc12 [Compound 52] | 100% | 99.6% |
| O=C(NCc1cccs1)c1nc(N2CCCC2)c2cc(-c3ccccc3)cc(C(F)(F)F)c2n1 [Compound 53] | 86.2% | 91.4% |
| Oc1cc(-c2nnc(Nc3ccccc3)o2)nc2c(C(F)(F)F)cc(-c3ccccc3)cc12 [Compound 54] | 98.7% | 97.9% |
| O=C(NCc1cccs1)c1cc(O)c2cc(-c3ccccc3)c(F)c(C(F)(F)F)c2n1 [Compound 59] | 97.2% | 92.7% |
| O=C(NCc1cccs1)c1cc(O)c2c(Cl)c(-c3ccccc3)cc(C(F)(F)F)c2n1 [Compound 64] | 88.2% | 79.2% |
| O=C(NCc1cccs1)c1cc(Cl)c2cc(-c3ccccc3)cc(C(F)(F)F)c2n1 [Compound 65] | 99.5% | 97.5% |
| Nc1cc(C(=O)NCc2cccs2)nc2c(C(F)(F)F)cc(-c3ccccc3)cc12 [Compound 66] | 99.9% | 99.9% |
| O=C(NCc1ccccn1)c1cc(Cl)c2cc(-c3ccccc3)cc(C(F)(F)F)c2n1 [Compound 67] | 97.8% | 96.9% |
| Nc1cc(C(=O)NCc2ccccn2)nc2c(C(F)(F)F)cc(-c3ccccc3)cc12 [Compound 68] | 99.7% | 99.9% |
| O=C(NCc1ccccn1)c1cc(O)c2cc(-c3ccccc3F)cc(C(F)(F)F)c2n1 [Compound 70] | 82% | 69.1% |
